Data on four compounds can be found in US20220112464A1, “VASCULARIZED ORGANOID MODEL INCORPORATING ISOLATED HUMAN MICROVESSEL FRAGMENTS” (Advanced Solutions Life Sciences, LLC, priority 2020, published 2022).

One assay has as its system microvessels. As to the kind of experiment: Microvessel growth (vessel length) under different culture media, FIG. 13. Format: cell-based, human. To be noted: medium or supplement used for microvessel culture. An excerpt: FIG. 13 is a graph depicting vessel length (mm) of organoids cultured under a variety of conditions (serum free+VEGF, 10% FBS, RPMI/B-27/VEGF, ADM, AMM, RPMI/B-27+IM, RMPI/B-27+Dex, RPMI/B-27+IBMX).

The subject of assay [1] is adipose-like organoids. As to the kind of experiment: Lipolysis assay (glycerol production), 3D organoids. To be noted: 1 μM isoproterenol for 4 hours, organoids with and without microvessels. Format: cell-based, human. Here is the method:
A lipolysis assay was performed on 2D (after 24 days of 2D culture) and 3D cultures (after 17 days of 2D and 7 days of 3D culture), using a commercially available kit (Sigma). Samples were treated with 1 μM isoproterenol for 4 hours. For 2D cultures, supernatants were then mixed with the reaction solution and incubated according to manufacturer's instructions. For 3D cultures, organoids were homogenized in the supernatant after isoproterenol incubation using a plastic pestle, to release glycerol trapped inside the organoid. The homogenized sample was briefly centrifuged, and supernatants were used for the remainder of the manufacturer's protocol. Samples were read at 570 nm using a plate reader (BioTek Instruments). For 2D cultures, samples cultured in FBS were used as control samples that will not undergo lipolysis. For 3D samples, negative controls were not treated with isoproterenol.

Assay [2] deals with adipose-like organoids. Kind of assay: TNF-α challenge with RT-PCR of adipocyte markers. Type of assay: cell-based, human. To be noted: TNF-α treatment. On the procedure:
(§1) Adipose organoids were seeded and cultured as described above. After 7 days of culture, medium was changed from AMM to AMM supplemented with or without 50 ng/ml TNF-α (Peprotech). The following day, organoids were either flash frozen for PCR analysis, fixed for histology, or used for an IL-6 enzyme-linked immunosorbent assay (ELISA).
RNA was extracted from either 2D cultures or 3D organoids using a Qiagen RNeasy Plus Micro kit following manufacturer's protocols. RNA was converted to cDNA with SuperScript™ IV VILO™ Master Mix (Fisher Scientific). cDNA was amplified with human primers (IDT Technologies) listed in Table 1. Primers for insulin receptor were designed using Primer3 software (NIH) and verified using BLAST database (NIH), with gene coding obtained from GenBank (NIH).
Real-time PCR was performed using a SYBER master mix (Fisher Scientific) and CFX96 Real Time System (Bio Rad). Adiponectin and PPAR-γ expression were normalized to GAPDH (IDT Technologies) and compared to either FBS treated controls (2D) or organoids without microvessels (3D). After RT-PCR, amplified cDNA was loaded into a 2% agarose gel and run at 90V. Gels were imaged for SYBER green on a gel scanner (Azure Biosystems).

The subject of assay [3] is adipose-like organoids. As to the kind of experiment: TNF-α challenge with IL-6 ELISA. Type of assay: cell-based, human. As to conditions: 50 ng/ml TNF-α, approximately 24 hours, organoids with and without microvessels. On the procedure:
as §1
Organoids with and without microvessels and with or without TNF-α treatment were transferred with their supernatants to micro-centrifuge tubes and briefly homogenized with a plastic pestle. Samples were diluted and centrifuged for 2 minutes at 12,000 rcf to pellet remaining matrix and cell debris. An ELISA was performed with the supernatant following manufacturer instructions (R&D systems) to measure secreted interleukin-6 (IL-6) as a marker of adipocyte inflammation and dysfunction.
A general note: An ELISA detects its analyte on a solid surface through an enzyme-linked reagent.

Another assay has as its system human microvessels. To be noted: 50 ng/ml VEGF in serum free medium, 6 days of culture, versus no VEGF.

`CC(C)Cn1c(=O)n(C)c(=O)c2[nH]cnc21` [IBMX, 3-isobutyl-1-methylxanthine]: the microvessel growth entry in the assay on microvessels is “permanently impeded microvessel growth”.

As for `CC(C)NCC(O)c1ccc(O)c(O)c1` (stereo not drawn) [isoproterenol], the “glycerol production in response to isoproterenol” value in the assay on adipose-like organoids [1] was “produced glycerol”.

TNF-α: the adiponectin expression result in the assay on adipose-like organoids [2] (organoids with microvessels) was “small but distinct downregulation”; with adipose-like organoids [2] (organoids with no microvessels), “changed minimally”. Also, the IL-6 secretion result in the assay on adipose-like organoids [3] is given as “dramatically increased IL-6 secretion”.

“vascular endothelial growth factor [VEGF]”: the “vascular growth / vessel density of microvessels” value in the assay on human microvessels is given as “significantly increased vascular growth”.
